Reference: patent publication US7973213B2, “Antibiotic resistance conferred by a plant ABC transporter gene when expressed in transgenic plants” (University of Tennessee Research Foundation, priority 2005, dated 2011)

Key:
[1] = test system: transgenic tobacco events 28 and 30; assay: Resistance of Atwbc19 transgenic tobacco events to other antibiotics; format: in vivo, Nicotiana tabacum; settings: Atwbc19-only transgenic events 28 and 30
[2] = test system: Arabidopsis thaliana insertional knockout mutants; assay: Root growth of Arabidopsis insertional mutants on MSO media with kanamycin; format: in vivo; settings: media with 100 mg/l kanamycin, 2 weeks
Procedure: Sequence-tagged insertional mutant lines for the three ABC transporters, Atwbc19 (SALK—107731), Atwbc18 (SALK—100187) and Atwbc16 (SALK—119868) were obtained from ABRC Arabidopsis knock-out library. Homozygosity was tested by PCR of genomic DNA using 3 primers (Table 1). Two of the primers are specific to the native gene and amplify a known fragment. The third primer is specific to the T-DNA. Where the T-DNA is inserted between the two gene specific primers, a smaller fragment is generated allowing the identification of insertion in the gene of interest. The fragment was sequenced to ensure that it mapped at the expected loci. Kanamycin resistance was assessed by growing the mutants on MSO media with and without 100 mg/l kanamycin. Stratified seeds were germinated on 4 Petri dishes with 6 plants for each line and placed vertically in a growth chamber at 25 degrees. Root length was measured after 2 weeks. To quantify NPTII protein levels, total protein was extracted from 100 mg of root and shoot tissue from seedlings germinated on MSO media for 2 weeks, with 2 replicate samples per line. An ELISA was performed using a kit according to the manufactures instructions (Agdia, Elkhart, Ind., USA).

[3] = test system: Nicotiana tabacum cv Xanthi; assay: Root growth of T1 transgenic tobacco (pS15-ABC-dKan) on media with kanamycin; format: in vivo; settings: 200 mg/l kanamycin, 3 weeks
Procedure: Segregation analysis was performed on MS media (Murashige et al., 1962) with B5 vitamins (Gamborg et al., 1968) and 3% sucrose (MSO media) containing 200 mg/l kanamycin. T1 seeds from plants transformed with pS15-ABC-dKan were surface sterilized and germinated on the media. Root growth analysis was performed as above on vertically positioned plates where 6 seeds per plate and 6 replicate plates for each event were germinated with and without 100 and 200 mg/l kanamycin. Root length was measured after 3 weeks. All experiments were performed in a 25° C. growth cabinet under constant 40 μE irradiance.

Escherichia coli DH5α = assay: Kanamycin resistance of transformed E. coli in 96-well microtiter plates (optical density 630 nm); format: cell-based; settings: E. coli transformed with pKS-ABC, IPTG 1 mM, 24 hr
Procedure: Escherichia coli DH5α was obtained from stock strains available within our lab. All strains were cultured on LB media. Three plasmids were used in this study. pKS-ABC contains the Atwbc19 gene under the control of the lacZ promoter in pBluescript II SK+; pKS-nptII contains the nptII gene with the lacZ promoter in pBluescript II SK+; and pKS is pBluescript II SK+ with no inserted genes as a control. The microorganisms were maintained in glycerol stocks and stored at −80° C. Working cultures were obtained by inoculating a loopful of culture into 50 ml LB broth supplemented with ampicillin (100 mg/l) and incubated at 37° C. for 24 hr.
E. coli DH5α were transformed with pKS, pKS-ABC, and pKS-nptII by freeze/thaw method (Hanahan 1983). The gram-negative […] Escherichia coli DH5α were used in all transformations. For selection of transformants, aliquots of bacteria were spread onto solidified LB medium supplemented with ampicillin (100 mg/l) and incubated at 37° C.
Isopropyl-b-D-thiogalctopyranoside (IPTG) at 1 mM was used to induce Atwbc19 expression. Each well was filled with 199 μl LB, IPTG and varying concentrations of kanamycin or gentamycin and 50 μl bacterial treatment (DH5α transformed with pKS-ABC, DH5α transformed with pKS-nptII, DH5α transformed with pKS or none). […] Optical densities were measured at 630 nm (Biorad) after incubating microtiter plates at 37° C. for 24 hr.

O=C(N[C@H](CO)[C@H](O)c1ccc([N+](=O)[O-])cc1)C(Cl)Cl [chloramphenicol]
resistance of plants to the antibiotic [1]: no resistance

NCC[C@H](O)C(=O)N[C@@H]1C[C@H](N)[C@@H](O[C@H]2O[C@H](CN)[C@@H](O)[C@H](O)[C@H]2O)[C@H](O)[C@H]1O[C@H]1O[C@H](CO)[C@@H](O)[C@H](N)[C@H]1O [amikacin]
resistance of plants to the antibiotic [1]: no resistance

NC[C@H]1O[C@H](O[C@H]2[C@H](O)[C@@H](O[C@H]3O[C@H](CO)[C@@H](O)[C@H](N)[C@H]3O)[C@H](N)C[C@@H]2N)[C@H](O)[C@@H](O)[C@@H]1O [kanamycin]
root growth (root length) ([2]; line SALK—100187 (Atwbc18 mutant)): 1.82±0.25 cm | root growth (root length) ([2]; line SALK—107731 (Atwbc19 mutant)): 0.31±0.04 cm | root growth (root length) ([2]; line SALK—119868 (Atwbc16 mutant)): 0.30±0.03 cm | Root length ([3]; Atwbc19 transgenic event #28, T1 seeds): 1.03±0.55 cm | Root length ([3]; Atwbc19 transgenic event #30, T1 seeds): 2.02±1.16 cm | Root length ([3]; control (non-transgenic) tobacco): 0.37±0.09 cm | kanamycin concentrations to which Atwbc19 confers resistance (Escherichia coli DH5α): below 12.5 mg/l

gentamycin
resistance of plants to the antibiotic [1]: no resistance

[H]/N=C(/N)N[C@H]1[C@H](O)[C@@H](O)[C@H](O[C@@H]2O[C@@H](C)[C@](O)(C=O)[C@H]2O[C@@H]2O[C@@H](CO)[C@H](O)[C@@H](O)[C@@H]2NC)[C@@H](N/C(N)=N\[H])[C@@H]1O [streptomycin]
resistance of plants to the antibiotic [1]: no resistance
